In patent publication US9937234B2, “Compositions and methods for using and identifying antimicrobial agents” (priority 2013, dated 2018):

B1: human CXCL11 (protein, listed as Homo sapiens)
chain: QGFPMFKRGRCLCIGPGVKAVKVADIEKASIMYPSNNCDKIEVIITLKENKGQRCLNPKSKQARLIIKKVERKNF

Test system: B. anthracis Sterne strain ΔftsX
Assay type: cell-based, Bacillus anthracis

Molecule	susceptibility of ΔftsX	susceptibility of ΔftsX exponential and stationary phase organisms	susceptibility of ΔftsX to CXCL10-mediated killing
human CXCL9	resistant	–	–
human CXCL10	–	both resistant	resistance
B1	resistant	–	–
